Measurements from patent US9617302B2 (priority 2011, dated 2017).
“And” between values parts separate entries of the source, which are not always exact repeats. Equal values may be shown once. “Also recorded” adds a separate entry of the source. No end group written: not given here.

Key:
[1] = system: platelet-rich thrombus formation in irradiated mesenteric venules; assay: Fluorescein sodium-induced platelet thrombus formation in mesenteric venules; type: in vivo, mice
[2] = Tail bleeding time; type: in vivo, mice; conditions: 5 min after injection
Protocol: Bleeding time was measured by a minor modified method described by Dejana et al (Dejana E, Villa S, de Gaetano G. Bleeding time in rats: a comparison of different experimental conditions. Thrombosis and haemostasis 1982 Aug. 24; 48(1):108-11). […] A sharp cut of 2 mm from tail tip of mouse was made 5 min after injection. The tail was immediately placed into a tube filled with saline, kept at 37° C. for measuring bleeding time.

[3] = system: washed platelets; type: cell-based, human; conditions: for IC50: read-out: IC50, inhibition of the collagen-induced aggregation
[4] = Platelet count of whole blood after administration; type: in vivo, mice; conditions: 30 mg/kg, 5 min after administration; control 11.41±0.19
Protocol: Male ICR mice (25-30 g) were intravenously (IV) injected with PBS or hexapeptide (30 mg/kg), and then blood was collected at 5 min after injection. The platelet number of the whole blood sample was counted by a Sysmex cell counter (Chuo-Ku Kobe, Japan). PRP was prepared immediately by centrifugation at 200 g for 5 min. Platelet counts in PRP were adjusted to 3×10^8/ml and aggregation assay was performed in an aggregometer.

[5] = target: GPVI (Homo sapiens, UniProt Q9HCN6); type: binding
[6] = system: [Ca2+]i elevation in platelets; assay: Intracellular Ca2+ level in Fura-2-loaded platelets stimulated with collagen; type: cell-based; conditions: Fura-2/AM; various concentrations
Protocol: The concentration of intracellular free Ca^2+ was determined using a fluorescent probe, Fura-2/AM, according to the method of Pollock and Rink (Pollock W K, Rink T J. Thrombin and ionomycin can raise platelet cytosolic Ca2+ to micromolar levels by discharge of internal Ca2+ stores: studies using fura-2. Biochemical and biophysical research communications 1986 Aug. 29; 139(1):308-14). Fura-2/AM—loaded platelets were prepared as the washed platelets except washing with Ca^2+-free Tyrode solution and allowed platelets to uptake Fura-2/AM (5 μM) for 30 min in the first wash. The intracellular Ca^2+ level of Fura-2-loaded platelets (3×10^8/ml) in the presence of 1 mM of Ca^2+ was measured by the fluorescence change (excitation at 339 nm, emission at 500 nm) with a Hitachi fluorescence spectrophotometer.

[7] = system: platelet-rich plasma (PRP) prepared from mice; assay: Ex vivo platelet aggregation study (PRP of treated mice, collagen); type: in vivo; conditions: 10 mg/kg; collagen 3 μg/ml
Protocol: […] The platelet number of the whole blood sample was counted by a Sysmex cell counter (Chuo-Ku Kobe, Japan). PRP was prepared immediately by centrifugation at 200 g for 5 min. Platelet counts in PRP were adjusted to 3×10^8/ml and aggregation assay was performed in an aggregometer.

GPVI, sequence (Q9HCN6 21-339): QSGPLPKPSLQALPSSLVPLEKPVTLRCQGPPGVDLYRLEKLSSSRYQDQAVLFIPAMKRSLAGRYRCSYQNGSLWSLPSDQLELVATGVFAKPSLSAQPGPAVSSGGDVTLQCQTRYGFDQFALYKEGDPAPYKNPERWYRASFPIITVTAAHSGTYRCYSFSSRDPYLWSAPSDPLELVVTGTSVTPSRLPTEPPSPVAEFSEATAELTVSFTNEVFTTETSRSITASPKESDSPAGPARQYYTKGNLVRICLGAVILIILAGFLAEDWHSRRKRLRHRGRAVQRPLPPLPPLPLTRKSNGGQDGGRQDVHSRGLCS
GPVI, sequence (P30273 19-86, further chain): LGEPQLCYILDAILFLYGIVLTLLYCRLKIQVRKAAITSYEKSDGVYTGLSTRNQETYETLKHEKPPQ

## CC(=O)Oc1ccccc1C(=O)O [aspirin, reference compound]
[1]; 250 mg/kg, control (PBS) 111.1 ± 5.1 s
  Occlusion time: 298.7 ± 29.6 s
[1]; 250 mg/kg, control (PBS) 111.1 ± 5.1 s, listed as Aspirin
  Occlusion time: 298.7 ± 29.6 s
[2]; 250 mg/kg IV
  Bleeding time: 8.20 ± 0.91 min

## CCCCS(=O)(=O)N[C@@H](Cc1ccc(OCCCCC2CCNCC2)cc1)C(=O)O [tirofiban]
[2]; 0.4 mg/kg IV
  Bleeding time: 4.20 ± 1.20 min

## C(dK)WM(dN)V [d-form Tro-α6]
[3]
  IC50, inhibition of the collagen-induced aggregation: (IC50: 6.82 ± 3.34 μg/ml
  Inhibition of the collagen-induced aggregation (%): 89.44 ± 6.49%
  IC50: 8.75 µM

## CKAMNV [Tro-α6 W116A]
[3]
  Inhibition of the collagen-induced aggregation (%): 12.28 ± 2.40%
  Inhibitory activity on collagen-induced platelet aggregation (in words): decreased dramatically; also recorded: diminished

## CKWANV [Tro-α6 M117A]
[3]
  Inhibition of the collagen-induced aggregation (%): 52.91 ± 15.90%

## CKWMNV [Tro-α6, CKWMNV]
[4]
  Platelet count: 11.18±0.30 ×10^8/ml

## CWNKMV [Tro-α6 scramble]
[3]
  Inhibitory activity on collagen-induced platelet aggregation (in words): little effect

## GFCKWMNVAC [Tro-α10]
[5]
  Binding of anti-GPVI mAb (326E12) to platelets: specifically inhibited
[1]; 10 mg/kg, control (PBS) 153.0 ± 13.5 s
  Occlusion time: 294.5 ± 25.4 s
[1]; 10 mg/kg, control (PBS) 153.0 ± 13.5 s, listed as Decapeptide
  Occlusion time: 294.5 ± 25.4 s
[6]
  Collagen-evoked increase of [Ca2+]i: inhibited by decapeptide in a concentration-dependent manner
[7]
  % of inhibition, collagen-induced platelet aggregation ex vivo: 55.87 ± 10.82 (n = 11) %
[3]
  IC50, inhibition of the collagen-induced aggregation: 93.75 ± 6.25 (IC50: 35.17 ± 11.00
  Inhibition of the collagen-induced aggregation (%): 60% and 93.75 ± 6.25 (IC50: 35.17 ± 11.00%
  IC50: 30.4 µM

## RKWVNY [Agg-α6]
[3]
  Inhibition of the collagen-induced aggregation (%): 21.67 ± 9.33%
